Results published in patent US20140296137A1, “METHODS AND COMPOSITIONS FOR CONTROLLING ROTIFERS” (Los Alamos National Security, LLC, priority 2013, published 2014).
Read-outs that look alike come from different tables or passages of the source. Ends that are not written are not given here.

Legend:
Philodina acuticornis = format: in vivo; set-up: key to the marks not given beside the values; settings: AMP 0.5 mg/mL, 24 hr time point, room temperature, visual motility score
Source text: (§1) Briefly, the rotifer motility assay used herein in the presence of a biocontrol agent (e.g., AMP) may be used as a measure of relative rotifer viability and competency. Rotifer diet, of which algae is considered to be an important food source, is one of the key environmental factors that impact the growth and multiplication of rotifers. In effect, the inability of a rotifer to be mobile (i.e., inability to swim toward a food source and/or to have mobile cilia that help trap food) prevents the rotifer from ingesting sufficient nutrients to further grow and reproduce. Thus, any approach that reduces and/or inhibits rotifer motility has a significant impact on an individual rotifer and therefore rotifer populations. With respect to algae cultures, reducing and/or inhibiting rotifer motility prevents and/or reduces any negative impact rotifers have on algae cultures (e.g., open pond systems for algae biomass and biofuel production). In other words, reducing and/or inhibiting rotifer motility reduces and/or prevents rotifers (e.g., infestations) from ingesting and consequently damaging algae cultures use in biofuel production.
(§2) The effect of the insecticidal and non-insecticidal AMPs of Table 2 (Example 1) on three different rotifer species was measured. The three rotifer species were Adineta vaga and Philodina acuticornis (class Bdelloid rotifers), and Brachionus (Monogononta class). A visual motility assay was used to determine the impact of the individual AMPs on rotifer viability. In each case, a light microscope with 20× magnification was used to observe rotifer motility (activity). […] FIGS. 1A, 1C and 1E show a 20× magnification of Adineta vaga, Philodina acuticornis and Brachionus (untreated), respectively. FIGS. 1B, 1D and 1F show a 20× magnification of Adineta vaga, Philodina acuticornis and Brachionus (AMP treated), respectively.
(§3) Rotifer cultures were initiated in 12-well or 24-well plates at a density of approximately 100-200 rotifers/mL. The 12-well plates contained a volume of 1 mL per well, and the 24-well plates contained a volume of about 0.25 mL to about 0.35 mL per well. Individual rotifer cultures (individual wells) were incubated with a select AMP at a concentration of 0.5 mg/mL (or a range of about 78 μM to about 365 μM) for 18, 21 and 24 hours at room temperature. The rotifer cultures were monitored by preparing microscopy slides with a small sample taken from the individual wells. The slides were then visualized under a 20× magnification microscope for rotifer motility. […] The scoring system was based on observing a subset of the rotifer population from each well. The impact on the subset of rotifers observed served as a representative of the impact on the entire rotifer population for that particular AMP treatment.
(§4) A summary of the motility assay (or “Kill Assay”) for each insecticidal and non-insecticidal AMP incubated with the three different rotifer species for the 24 hour time point is provided below in Table 5 (insecticidal AMPs) and Table 6 (non-insecticidal AMPs). The 18 and 21 hour time points gave similar results to the 24 hour time point.

Adineta vaga = format: in vivo; set-up: key to the marks not given beside the values; settings: AMP 0.5 mg/mL, 24 hr time point, room temperature, visual motility score
Source text: as §1, §2, §3, §4

Chlorella sorokiniana = tested on: Chlorella sorokiniana
Experimental: (§5) This example provides the minimal inhibitory concentration (MIC) of antimicrobial peptides (AMPs) for algae. […] Therefore, the tolerance of algae to the AMPs listed in Table 2 of Example 1 was measured.
(§6) Briefly, the algae viability assay used herein measured the “health” of the algae cultures by looking at the color of the algae. […] A visual assay was used to determine the MIC for the individual AMPs on the algae. In each case, a light microscope with 20× magnification was used to observe algae color.
(§7) The effect of insecticidal and non-insecticidal AMPs on three different algae species was measured. The three algae species were Auxenochlorella protothecoides, Chlorella sorokiniana and Chlamydomonas reinhardtii.
(§8) Algae cultures were initiated in 96-well plates at an OD 750 of approximately 0.1. […] The antibiotics hygromycin and paromycin served as positive controls for inhibiting and/or reducing the growth rate of algae. […] The algae cultures were monitored by preparing microscopy slides with a small sample taken from the individual wells. The algae slides were then visualized under a 20× magnification microscope for algae viability as measured by algae color.

[1] = tested on: Chlamydomonas reinhardtii
Experimental: as §5, §6, §7, §8

Chlorella protothecoides = tested on: Chlorella protothecoides
Experimental: as §5, §6, §7, §8

Brachionus = format: in vivo; settings: AMP 0.5 mg/mL, 24 hr time point, room temperature, visual motility score
Source text: as §1, §2, §3, §4

[2] = 5-6 days, room temperature, 96-well, algae colour under 20× microscope, ND = AMP killed all the algae

Molecule	“Kill” Efficiency Philodina (Philodina acuticornis)	“Kill” Efficiency Adineta vaga (Adineta vaga)	Minimal Inhibitory Concentration (MIC) Chlorella sorokiana (Chlorella sorokiniana; [2]) [µM]	Minimal Inhibitory Concentration (MIC) Chlamydomonas reinhardtii [1, 2]	Minimal Inhibitory Concentration (MIC) Chlorella protothecoides (Chlorella protothecoides; [2])	Minimal Inhibitory Concentration (MIC) Chlorella sorokiana (Chlorella sorokiniana) [µM]	“Kill” Efficiency Brachionus (Brachionus)	Minimal Inhibitory Concentration (MIC) Chlamydomonas reinhardtii [1] [µM]	Minimal Inhibitory Concentration (MIC) Chlorella protothecoides (Chlorella protothecoides) [µM]
CC[C@H](C)[C@H](NC(=O)CN)C(=O)NCC(=O)N[C@@H](C)C(=O)N[C@H](C(=O)N[C@@H](CC(C)C)C(=O)N[C@@H](CCCCN)C(=O)N[C@H](C(=O)N[C@@H](CC(C)C)C(=O)N[C@H](C(=O)N[C@H](C(=O)NCC(=O)N[C@@H](CC(C)C)C(=O)N1CCC[C@H]1C(=O)N[C@@H](C)C(=O)N[C@@H](CC(C)C)C(=O)N[C@H](C(=O)N[C@@H](CO)C(=O)N[C@@H](Cc1c[nH]c2ccccc12)C(=O)N[C@H](C(=O)N[C@@H](CCCCN)C(=O)N[C@@H](CCCNC(=N)N)C(=O)N[C@@H](CCCCN)C(=O)N[C@@H](CCCNC(=N)N)C(=O)N[C@@H](CCC(N)=O)C(=O)N[C@@H](CCC(N)=O)C(N)=O)[C@@H](C)CC)[C@@H](C)CC)[C@@H](C)O)[C@@H](C)O)C(C)C)C(C)C [Melittin]	+++	+++	11	ND (kills)	11 µM				
DFKDWMKTAGEWLKKKGPGILKAAMAAAT [Ponericin G4]			79	19.8 µM	158 µM				
FFHHIFRGIVHVGKTIHKLVTG [Piscidin 2]	+++	+++			24.6 µM	24.6	+++		
FFHHIFRGIVHVGKTIHRLVTG [Piscidin 1]	+++	+++				24.3	+++	12.2	12.2
FIHHIFRGIVHAGRSIGRFLTG [Piscidin 3]	+++	+++				100.3	+++		
FSFKRLKGFAKKLWNSKLARKIRTKGLKYVKNFAKDMLSEGEEAPPAAEPPVEAPQ [Im-1]	+++	+++	19.7	9.9 µM	9.9 µM		+++		
FWGALIKGAAKLIPSVVGLFKKKQ [Ponericin W5]	+++	+++	24	12 µM	12 µM		+++		
GFGSLFKFLAKKVAKTVAKQAAKQGAKYVANKHME [Cupiennin 1D]	+++	+++	65.9	32.9 µM	16.5 µM				
GIGKFLHSAKKFGKAFVGEIMNS [Magainin 2]	+++	+++				50.7	+		
GIWGTALKWGVKLLPKLVGMAQTKKQ [Ponericin W4]	+++	+++	87.6	11 µM	43.8 µM		+++		
GIWGTLAKIGIKAVPRVISMLKKKKQ [Ponericin W3]	+++	+++	87.3	5.5 µM	21.8 µM		+++		
GLVDVLGKVGGLIKKLLP [Ponericin G6]			274.9	17.2 µM	274.9 µM		+++		
GWKDWAKKAGGWLKKKGPGMAKAALKAAMQ [Ponericin G1]	+++	+++	155.8	19.5 µM	78 µM		+++		
GWKDWLNKGKEWLKKKGPGIMKAALKAATQ [Ponericin G3]	+++	+++	37	9.2 µM	37 µM		+++		
IWLTALKFLGKHAAKHLAKQQLSKL [Lycotoxin-1, Lycotoxin I]	+++	+++	88	22 µM	44 µM		+++		
KWKLFKKIEKVGQNIRDGIIKAGPAVAVVGQATQIAK [Cecropin A]	++	+++	124.9	15.6 µM	124.9 µM				
KWKLFKKIGIGKFLHWAKKF [W16-CA(1-8)-MA(1-12)]	+++	+++	25	12.5 µM	ND (kills)		+		
LLKELWTKIKGAGKAVLGKIKGLL [Ponericin L2]	+++	+++	97	12.1 µM	48.5 µM				
MASRHMFLPLIGRVLSGIL [MsrA3]	+++	+++		29.6 µM	59.2 µM		+		
WLGSALKIGAKLLPSVVGLFKKKKQ [Ponericin W1]	+++	+++	46.1	11.5 µM	23.1 µM		+++		
